Experimental data taken from US20050070510A1, “Substituted tetracycline compounds as synergistic antifungal agents” (Paratek Pharmaceuticals, Inc., priority 2001, published 2005).

System: COS-1 cells
Assay: In vitro mammalian cytotoxicity assay (Resazurin)

Compound	In Vitro Cytotoxicity
CCCCN(c1ccc2c(c1O)C(=O)C1=C(O)[C@]3(C#N)C(=O)C(C(N)=O)=C(O)[C@@H](N(C)C)[C@]3(N)C[C@]1(N)C2)C1CCN(C)CC1 [RY]	* (toxicities greater than >25 μg/ml are represented by *)
CC(O)CCc1ccc(O)c2c1C[C@@]1(N)C[C@@]3(N)[C@H](N(C)C)C(O)=C(C(N)=O)C(=O)[C@@]3(C#N)C(O)=C1C2=O (stereo partly drawn) [IW]	* (toxicities greater than >25 μg/ml are represented by *)
CN(C)[C@@H]1C(O)=C(C(=O)NC(C)(C)C)C(=O)[C@@]2(C#N)C(O)=C3C(=O)c4c(O)cccc4C(N)[C@@]3(N)[C@H](O)[C@@]12N (stereo partly drawn) [DA]	* (toxicities greater than >25 μg/ml are represented by *)
CN(C)[C@@H]1C(O)=C(C(N)=O)C(=O)[C@@]2(C#N)C(O)=C3C(=O)c4c(O)ccc(C#Cc5ccccc5)c4C[C@@]3(N)C[C@@]12N [FX]	** (toxicities less than 25 μg/mL are represented by **)
Cc1coc(NCc2cc(N(C)C)c3c(c2O)C(=O)C2=C(O)[C@]4(C#N)C(=O)C(C(N)=O)=C(O)[C@@H](N(C)C)[C@]4(N)C[C@]2(N)C3)n1 [TE]	* (toxicities greater than >25 μg/ml are represented by *)
CCC(CC)CCc1ccc(O)c2c1C[C@@]1(N)C[C@@]3(N)C(N(C)C)C(O)=C(C(N)=O)C(=O)[C@@]3(C#N)C(O)=C1C2=O (stereo partly drawn) [QX]	** (toxicities less than 25 μg/mL are represented by **)
C=CCOC(=O)Nc1ccc(-c2ccc(O)c3c2C[C@@]2(N)C[C@@]4(N)[C@H](N(C)C)C(O)=C(C(N)=O)C(=O)[C@@]4(C#N)C(O)=C2C3=O)cc1 [OZ]	** (toxicities less than 25 μg/mL are represented by **)
CN(C)[C@@H]1C(O)=C(C(N)=O)C(=O)[C@@]2(C#N)C(O)=C3C(=O)c4c(O)ccc(CCc5ccccc5)c4C[C@@]3(N)C[C@@]12N [IN]	** (toxicities less than 25 μg/mL are represented by **)
CC(=O)c1ccc(-c2cc(N(C)C)c3c(c2O)C(=O)C2=C(O)[C@]4(C#N)C(=O)C(C(N)=O)=C(O)[C@@H](N(C)C)[C@]4(N)C[C@]2(N)C3)cc1 [Compound HJ, 9-(4′-Acetylphenyl) Minocycline]	** (toxicities less than 25 μg/mL are represented by **)
COc1ccc(CNCc2ccc(-c3ccc(O)c4c3C[C@@]3(N)C[C@@]5(N)[C@H](N(C)C)C(O)=C(C(N)=O)C(=O)[C@@]5(C#N)C(O)=C3C4=O)cc2)cc1 [PI]	** (toxicities less than 25 μg/mL are represented by **)
CC(CF)Nc1ccc(-c2ccc(O)c3c2C[C@@]2(N)C[C@@]4(N)[C@H](N(C)C)C(O)=C(C(N)=O)C(=O)[C@@]4(C#N)C(O)=C2C3=O)cc1 (stereo partly drawn) [VK]	** (toxicities less than 25 μg/mL are represented by **)
CCCCCCc1ccc(O)c2c1C[C@@]1(N)C[C@@]3(N)[C@H](N(C)C)C(O)=C(C(N)=O)C(=O)[C@@]3(C#N)C(O)=C1C2=O [JE]	** (toxicities less than 25 μg/mL are represented by **)
CN(C)c1ccc(-c2ccc3c(c2O)C(=O)C2=C(O)[C@]4(C#N)C(=O)C(C(N)=O)=C(O)[C@@H](N(C)C)[C@]4(N)[C@@H](O)[C@]2(N)[C@H]3O)cc1 [OY]	** (toxicities less than 25 μg/mL are represented by **)
CN(C)[C@@H]1C(O)=C(C(N)=O)C(=O)[C@@]2(C#N)C(O)=C3C(=O)c4c(O)ccc(-c5ccc(I)cc5)c4C[C@@]3(N)C[C@@]12N [CW]	** (toxicities less than 25 μg/mL are represented by **)
CC(N)CNCc1cc(N(C)C)c2c(c1O)C(=O)C1=C(O)[C@]3(C#N)C(=O)C(C(N)=O)=C(O)[C@@H](N(C)C)[C@]3(N)C[C@]1(N)C2 (stereo partly drawn) [SV]	* (toxicities greater than >25 μg/ml are represented by *)
CN(C)[C@@H]1C(O)=C(C(N)=O)C(=O)[C@@]2(C#N)C(O)=C3C(=O)c4c(O)ccc(-c5ccc(CN6CCCC6)cc5)c4C[C@@]3(N)C[C@@]12N [HM]	* (toxicities greater than >25 μg/ml are represented by *)
CN(C)[C@@H]1C(O)=C(C(N)=O)C(=O)[C@@]2(C#N)C(O)=C3C(=O)c4c(O)ccc(-c5cc6ccccc6o5)c4C[C@@]3(N)C[C@@]12N [NW]	** (toxicities less than 25 μg/mL are represented by **)
CCc1ccc(O)c2c1C[C@@]1(N)C[C@@]3(N)[C@H](N(C)C)C(O)=C(C(N)=O)C(=O)[C@@]3(C#N)C(O)=C1C2=O [GE]	** (toxicities less than 25 μg/mL are represented by **)
CN(C)[C@@H]1C(O)=C(C(N)=O)C(=O)[C@@]2(C#N)C(O)=C3C(=O)c4c(O)ccc(C5CCCC5)c4C[C@@]3(N)C[C@@]12N [JB]	** (toxicities less than 25 μg/mL are represented by **)
CN(C)[C@@H]1C(O)=C(C(N)=O)C(=O)[C@@]2(C#N)C(O)=C3C(=O)c4c(O)ccc(/C=C(\Cl)C5=CCCCC5)c4C[C@@]3(N)C[C@@]12N [GG]	** (toxicities less than 25 μg/mL are represented by **)
CC(C)CC(Cc1ccc(O)c2c1C[C@@]1(N)C[C@@]3(N)[C@H](N(C)C)C(O)=C(C(N)=O)C(=O)[C@@]3(C#N)C(O)=C1C2=O)CC(C)C [RN]	** (toxicities less than 25 μg/mL are represented by **)

Compound	In Vitro Cytotoxicity
CN(C)[C@@H]1C(O)=C(C(N)=O)C(=O)[C@@]2(C#N)C(O)=C3C(=O)c4c(O)ccc(-c5cccnc5)c4C[C@@]3(N)C[C@@]12N [UL]	** (toxicities less than 25 μg/mL are represented by **)
CN(C)[C@@H]1C(O)=C(C(N)=O)C(=O)[C@@]2(C#N)C(O)=C3C(=O)c4c(ccc(N(Cc5ccccc5)Cc5ccccc5)c4O)[C@H](N)[C@@]3(N)[C@H](O)[C@@]12N [BP]	** (toxicities less than 25 μg/mL are represented by **)
CCOc1ccc(-c2ccc(O)c3c2C[C@@]2(N)C[C@@]4(N)[C@H](N(C)C)C(O)=C(C(N)=O)C(=O)[C@@]4(C#N)C(O)=C2C3=O)cc1 [FT]	** (toxicities less than 25 μg/mL are represented by **)
CN(C)[C@@H]1C(O)=C(C(N)=O)C(=O)[C@@]2(C#N)C(O)=C3C(=O)c4c(O)ccc(-c5ccc(NC(=O)CBr)cc5)c4C[C@@]3(N)C[C@@]12N [UV]	** (toxicities less than 25 μg/mL are represented by **)
CC(C)CNC(=N)Nc1cc(N(C)C)c2c(c1O)C(=O)C1=C(O)[C@]3(C#N)C(=O)C(C(N)=O)=C(O)[C@@H](N(C)C)[C@]3(N)C[C@]1(N)C2 [MM]	* (toxicities greater than >25 μg/ml are represented by *)
Cc1noc(C)c1S(=O)(=O)NCc1cc(N(C)C)c2c(c1O)C(=O)C1=C(O)[C@]3(C#N)C(=O)C(C(N)=O)=C(O)[C@@H](N(C)C)[C@]3(N)C[C@]1(N)C2 [TJ]	* (toxicities greater than >25 μg/ml are represented by *)
CCC(CC)CCc1ccc(O)c2c1C[C@@]1(N)C[C@@]3(N)[C@H](N(C)C)C(O)=C(C(N)=O)C(=O)[C@@]3(C#N)C(O)=C1C2=O [GX]	** (toxicities less than 25 μg/mL are represented by **)
CC(=O)c1cc(C(C)=O)c2c(c1O)C(=O)C1=C(O)[C@]3(C#N)C(=O)C(C(N)=O)=C(O)[C@@H](N(C)C)[C@]3(N)C[C@]1(N)C2 [LL]	* (toxicities greater than >25 μg/ml are represented by *)
CN(C)[C@@H]1C(O)=C(C(N)=O)C(=O)[C@@]2(C#N)C(O)=C3C(=O)c4c(O)ccc(I)c4[C@H](N)[C@@]3(N)[C@H](O)[C@@]12N [CL]	** (toxicities less than 25 μg/mL are represented by **)
CC(C)COC(=O)Nc1ccc(-c2ccc(O)c3c2C[C@@]2(N)C[C@@]4(N)[C@H](N(C)C)C(O)=C(C(N)=O)C(=O)[C@@]4(C#N)C(O)=C2C3=O)cc1 [OD]	** (toxicities less than 25 μg/mL are represented by **)
CN(C)[C@@H]1C(O)=C(C(N)=O)C(=O)[C@@]2(C#N)C(O)=C3C(=O)c4c(O)ccc(-c5ccc(CNCc6ccccc6)cc5)c4C[C@@]3(N)C[C@@]12N [HP]	** (toxicities less than 25 μg/mL are represented by **)
CCOc1ccccc1-c1ccc(O)c2c1C[C@@]1(N)C[C@@]3(N)[C@H](N(C)C)C(O)=C(C(N)=O)C(=O)[C@@]3(C#N)C(O)=C1C2=O [ER]	** (toxicities less than 25 μg/mL are represented by **)
CCCCOC(=O)Nc1cc(N(C)C)c2c(c1O)C(=O)C1=C(O)[C@]3(C#N)C(=O)C(C(N)=O)=C(O)[C@@H](N(C)C)[C@]3(N)C[C@]1(N)C2 [KI]	** (toxicities less than 25 μg/mL are represented by **)
CC(C)NCc1ccc(-c2ccc(O)c3c2[C@H](N)[C@]2(N)C(=C(O)[C@]4(C#N)C(=O)C(C(N)=O)=C(O)[C@@H](N(C)C)[C@]4(N)[C@H]2O)C3=O)o1 [QK]	* (toxicities greater than >25 μg/ml are represented by *)
CCC(C)C#Cc1ccc(O)c2c1C[C@@]1(N)C[C@@]3(N)[C@H](N(C)C)C(O)=C(C(N)=O)C(=O)[C@@]3(C#N)C(O)=C1C2=O (stereo partly drawn) [GW]	** (toxicities less than 25 μg/mL are represented by **)
CN(C)c1cc(C2C=CCC2)c(O)c2c1C[C@@]1(N)C[C@@]3(N)[C@H](N(C)C)C(O)=C(C(N)=O)C(=O)[C@@]3(C#N)C(O)=C1C2=O (stereo partly drawn) [DO]	** (toxicities less than 25 μg/mL are represented by **)
CN(C)[C@@H]1C(O)=C(C(N)=O)C(=O)[C@@]2(C#N)C(O)=C3C(=O)c4c(O)cccc4[C@H](N)[C@@]3(N)[C@H](OC(=O)Nc3ccc(O)cc3[N+](=O)O)[C@@]12N [BN]	* (toxicities greater than >25 μg/ml are represented by *)
CN(C)c1ccc(-c2cc(CN)c(O)c3c2C[C@@]2(N)C[C@@]4(N)[C@H](N(C)C)C(O)=C(C(N)=O)C(=O)[C@@]4(C#N)C(O)=C2C3=O)cc1 [QN]	* (toxicities greater than >25 μg/ml are represented by *)
CN(C)c1cc(-c2ccc(C(N)=O)cc2)c(O)c2c1C[C@@]1(N)C[C@@]3(N)[C@H](N(C)C)C(O)=C(C(N)=O)C(=O)[C@@]3(C#N)C(O)=C1C2=O [ET]	** (toxicities less than 25 μg/mL are represented by **)
CN(C)[C@@H]1C(O)=C(C(N)=O)C(=O)[C@@]2(C#N)C(O)=C3C(=O)c4c(O)ccc(-c5ccc(NC(=O)CNC(C)(C)C)cc5)c4C[C@@]3(N)C[C@@]12N [UZ]	** (toxicities less than 25 μg/mL are represented by **)
COC(CN(Cc1ccc(O)c2c1C[C@@]1(N)C[C@@]3(N)[C@H](N(C)C)C(O)=C(C(N)=O)C(=O)[C@@]3(C#N)C(O)=C1C2=O)CC(OC)OC)OC [SG]	* (toxicities greater than >25 μg/ml are represented by *)
